Assay results published in BindingDB's records for doi:10.1007/pl00005288 (King'S College London, 1998).

Experiments:
[1] = target: Melatonin receptor type 1A (Homo sapiens, UniProt P48039)
[2] = target: T1, Melatonin receptor type 1B (Homo sapiens, UniProt P49286)
T1 sequence (P49286 whole entry): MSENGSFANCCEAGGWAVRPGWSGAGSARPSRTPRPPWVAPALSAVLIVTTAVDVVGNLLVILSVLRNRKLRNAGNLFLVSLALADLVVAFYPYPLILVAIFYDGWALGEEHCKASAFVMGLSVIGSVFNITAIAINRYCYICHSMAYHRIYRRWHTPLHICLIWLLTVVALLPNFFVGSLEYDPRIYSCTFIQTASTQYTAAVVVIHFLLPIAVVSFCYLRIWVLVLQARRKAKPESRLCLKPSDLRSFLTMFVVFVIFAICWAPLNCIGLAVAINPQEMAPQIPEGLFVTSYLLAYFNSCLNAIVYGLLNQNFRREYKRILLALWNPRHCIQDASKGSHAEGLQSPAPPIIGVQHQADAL

[3] = target: T2, Melatonin receptor type 1B (Gallus gallus, UniProt P51050)
T2 sequence (P51050 whole entry): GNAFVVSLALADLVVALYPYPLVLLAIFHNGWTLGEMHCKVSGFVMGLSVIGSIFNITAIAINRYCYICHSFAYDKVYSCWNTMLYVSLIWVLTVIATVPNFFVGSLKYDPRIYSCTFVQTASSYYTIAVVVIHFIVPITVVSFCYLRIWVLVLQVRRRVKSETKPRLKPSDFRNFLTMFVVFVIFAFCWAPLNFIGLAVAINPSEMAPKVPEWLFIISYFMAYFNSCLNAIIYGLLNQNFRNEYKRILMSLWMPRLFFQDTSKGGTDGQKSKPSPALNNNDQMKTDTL

[4] = target: T3, Melatonin receptor type 1C (Xenopus laevis, UniProt P49219)
T3 sequence (P49219 whole entry): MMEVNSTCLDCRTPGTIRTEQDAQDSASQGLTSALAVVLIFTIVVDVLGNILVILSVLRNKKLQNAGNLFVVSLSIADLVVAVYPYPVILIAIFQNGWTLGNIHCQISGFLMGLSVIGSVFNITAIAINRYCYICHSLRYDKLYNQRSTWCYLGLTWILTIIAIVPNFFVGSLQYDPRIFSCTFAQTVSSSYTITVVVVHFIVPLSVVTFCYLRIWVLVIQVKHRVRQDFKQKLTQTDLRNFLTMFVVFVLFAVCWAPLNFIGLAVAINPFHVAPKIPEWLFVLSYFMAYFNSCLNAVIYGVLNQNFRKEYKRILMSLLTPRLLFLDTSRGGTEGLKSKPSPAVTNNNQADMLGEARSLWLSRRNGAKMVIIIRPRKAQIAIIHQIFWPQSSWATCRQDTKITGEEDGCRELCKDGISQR

Sequence of Melatonin receptor type 1A (P48039 whole entry): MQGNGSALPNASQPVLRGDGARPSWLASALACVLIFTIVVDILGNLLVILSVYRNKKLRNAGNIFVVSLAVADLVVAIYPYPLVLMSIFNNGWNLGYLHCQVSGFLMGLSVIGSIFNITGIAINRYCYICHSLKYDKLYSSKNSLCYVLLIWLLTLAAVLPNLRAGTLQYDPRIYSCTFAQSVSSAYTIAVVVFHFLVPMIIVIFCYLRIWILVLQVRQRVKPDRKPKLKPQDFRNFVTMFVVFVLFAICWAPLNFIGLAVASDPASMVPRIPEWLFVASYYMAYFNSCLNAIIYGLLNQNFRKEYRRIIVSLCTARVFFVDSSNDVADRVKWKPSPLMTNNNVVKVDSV

Compound	Ki [1] [nM]	Ki [2] [nM]	Ki [3] [nM]	Ki [4] [nM]
CCCC(=O)NCCc1c(Cc2ccccc2)[nH]c2ccccc12 [Luzindole,N-butanoyl]	3020	1320	> 10000	3800
CCCCCC(=O)NCCc1c(Cc2ccccc2)[nH]c2ccccc12 [Luzindole,N-hexanoyl]	5500	7080	6460	5750
CCCCC(=O)NCCc1c(Cc2ccccc2)[nH]c2ccccc12 [Luzindole,N-pentanoyl]	832	9.33	933	2140
CCC(=O)NCCc1c(Cc2ccccc2)[nH]c2ccccc12 [Luzindole,N-propanoyl]	776	22.9	1950	3160

Compounds with a lower Ki [1], results first:

Ki [1] [nM]	Ki [2] [nM]	Ki [3] [nM]	Ki [4] [nM]	Compound
513	26.9	1740	2040	CC(=O)NCCc1c(Cc2ccccc2)[nH]c2ccccc12 [CAS_117946-91-5]
339	324	776	1380	CCCCCC(=O)NCCc1c(Cc2ccccc2)[nH]c2ccc(OC)cc12 [Luzindole,5-MeOT-N-hexanyl]
